# In patent US20240148674A1, “PHARMACEUTICALLY ACCEPTABLE SALTS OF MESDOPETAM AND USES THEREOF” (priority 2020, published 2024):
# Counter-ions that a name gives are not always drawn. Like-named read-outs stand apart in the source and are kept apart here.
# How the values were obtained:
# [1] = Experimental: The temperature was 25° C. using step intervals of 10% between 0% and 95% RH in two consecutive cycles.
# [2] = test system: adverse involuntary movements (AIMs); settings: J. Pharmacol. Exp. Ther. 374: 113-125, July 2020; cited from earlier work
# [3] = Hygroscopicity test, weighed samples kept at varied humidity at 30° C. for one week; assay type: physicochemical; settings: for Weight difference (%): 30° C., one week; for Hygroscopicity, in words: any tested relative humidity
# Experimental: Hygroscopicity test of the L-tartaric salt of [2-(3-fluoro-5-methanesulfonylphenoxy)-ethyl] (propyl)amine was performed by keeping exact weight samples of the salt at varied humidity at 30° C. After one week, the samples were weighed again and based on the original weight the percentage weight difference was calculated.
# [4] = test system: Parkinson's patients with L-DOPA induced dyskinesia (LIDs); experiment: Human clinical study, 24-hour patient home diaries (good ON time); assay type: in vivo
# Description: Home diaries have gained wide acceptance as endpoints for clinical development of therapeutics aiming to reduce treatment-related motor complications. Motor fluctuations are associated with compromise in activities of daily living and health-related quality of life. In clinical trials performed by Integrative Research Laboratories Sweden AB patients record their 24-hours motor function in 30-minute intervals, beginning at midnight. For each 30-minute interval the patient rates the state he or she has been in for the past 30 minutes; OFF, ON without troublesome dyskinesia or ON with troublesome dyskinesia. The patient also denoted the time when he or she has been asleep.
# In general, an “OFF” time reduction or “good ON-time” increase of 1 hour may be considered clinically significant and has been used as an assumption in power calculations in clinical trials. Therefore, it can be assumed that shift towards more “good ON-time” of a minimum of 1-hour daily represents a clinically meaningful effect, considering the total time spent in the daily ON state (ON with and without troublesome dyskinesia) is not negatively affected by the treatment.
# A valid diary is defined as not having more than 2 hours of invalid data entries (4 invalid entries) over a given 24-hour period. An invalid diary entry is defined as more than one entry recorded in each half-hour interval, an unreadable entry, or the absence of an entry in each half-hour interval. The average diary information from 3 valid diaries (if available) for each visit will be used to calculate diary-based efficacy endpoints. If there are only 2 valid diaries for a visit, then the average information from the 2 valid diaries will be used. If only one diary is valid, information from the single valid diary will be used. If no valid diaries were available for a patient visit, then the diary information was considered missing.
# At run-in and following treatment patients were asked to complete home diaries describing their motor status in 30-minute intervals for 24 hours. […]
# [5] = test system: unilateral 6-OHDA-lesioned rats; experiment: Rodent unilateral 6-OHDA lesion model of L-DOPA sensitization, rotation test by ROTORAT; assay type: in vivo, Sprague Dawley rats; settings: for Contralateral turns, test compound given alone: without L-DOPA, 0-2.5 h
# Experimental: The unilateral 6-OHDA lesion model is an established animal model of Parkinson's disease (see e.g. Exp. Neurol. 194: 66-75 (2005)). The neurotoxin 6-OH-DA is injected in the medial forebrain bundle (MFB), resulting in depletion of dopamine e.g. in the striatum. Upon repeated administration of L-DOPA, the animals with such a lesion display sensitization to L-DOPA, captured by rotational behaviour measured as associated with the development of LIDs. The effects of IRL790 (as a HCl-salt) on fully established AIMs have been published previously (J. Pharmacol. Exp. Ther. 374: 113-125 (2020)). Thus, in this article the administration of IRL790 was […]. […] The co-administration of said test compound with the L-DOPA was not preceded by treatment with L-DOPA. The clinically used antidyskinetic compound amantadine (as a HCl-salt) together with L-DOPA was used for comparison.
# For the evaluation of sensitization to L-DOPA the rodent unilateral 6-OH-DA-lesion model was used. Adult 150˜200 g female Sprague Dawley rats (Charles River) were housed in temperature- and humidity-controlled rooms (20° C., 53% humidity) with a 12 h dark/light cycle. The rats had access to standard food pellets and water ad libitum. The experiments were approved by the local ethical committee at Karolinska Institute (Stockholm North Ethical Committee, N1525/2017) and conducted in accordance with the European Communities Council Directive of 24 Nov. 1986 (86/609/EEC).
# Experimental procedures including unilateral 6-OH-DA-lesions and behavioral assessments were carried as follows. Rats were anesthetized using a mixture of ketamine (100 mg/kg, i.p.; Parke-Davis, Boxmeer, The Netherlands) and xylazine (10 mg/kg, i.p.; Bayer, Kiel, Germany), pretreated with a mixture of desipramine (25 mg/kg, i.p.; Sigma-Aldrich) and pargyline (5 mg/kg, i.p.; Sigma-Aldrich) 30 minutes before lesioning to prevent uptake of 6-OHDA into noradrenergic neurons, and to prevent extracellular metabolism of 6-OHDA, respectively. Rats were placed in a stereotaxic frame (David Kopf Instruments, KOPF®, USA) and injected with temgesic (0.1 mg/kg, s.c., Apoteket, Sweden) before surgery; 2 μl 6-OHDA (5 μg/μl in saline containing 0.02% w/v ascorbic acid, Sigma-Aldrich) was injected into the right MFB, stereotaxic coordinates AP: −2.5 mm, ML: −2.0 mm, DV: −8.5 mm vs. bregma and dural surface (The Rat Brain in Stereotaxic Coordinates 6th Edition, George Paxinos and Charles Watson, 2007) in order to selectively lesion dopaminergic cells in the right brain hemisphere. Post-operative analgesia (Temgesic, s.c.) was administered twice within 48 hours after surgery. Two weeks following surgery, rats were treated with apomorphine (1 mg/kg i.p.; Sigma-Aldrich) to verify successful lesioning. […]
# [6] = test system: immediate early response genes (IEGs) cfos and arc; experiment: Striatal gene expression analysis by qPCR in 6-OHDA-lesioned rats; assay type: in vivo
# Experimental: Data is expressed as relative gene expression and was statistically evaluated by two-way ANOVA (analysis of variance).
# Data is expressed as relative gene expression and was statistically evaluated by two-way ANOVA (analysis of variance). * denotes p<0.05, ** denotes p<0.01, and *** denotes p<0.001.
# Whenever L-DOPA was used in this study, it was administered together with benzerazid HCl-salt 7.5 mg/kg i.p, which is a standard procedure when L-DOPA is administered to rats in the unilateral 6-OHDA lesion model. Chronic treatment of four groups of rats was started with either: (1) L-DOPA (10 mg/kg), (2) [2-(3-fluoro-5-methanesulfonyl-phenoxy)ethyl](propyl)amine tartaric acid salt (3 mg/kg s.c.), (3) L-DOPA (10 mg/kg)+[2-(3-fluoro-5-methanesulfonyl-phenoxy)ethyl](propyl)amine tartaric acid salt (3 mg/kg s.c.), or (4) the corresponding vehicle (saline, i.p.) given once daily for 2 weeks. Additionally, two groups of rats were treated with either amantadine HCl salt (40 mg/kg ip), or L-DOPA (10 mg/kg)+amantadine HCl salt (40 mg/kg i.p.), once daily for 14 days. Behavioural assessments were performed on Day 1, Day 7, and Day 14 of chronic treatment. Thus, on Days 1, 7 and 14 contralateral rotations (i.e. rotations in the opposite direction to the side of the 6-OH-DA-lesion) were measured. Contralateral rotations were measured by Rotorat over 2.5 hours after the administration of test compound. […]
# [7] = as disclosed in PCT/EP2020/064046; cited from earlier work
# [8] = once daily 2 weeks, Example 7 3 mg/kg s.c., amantadine HCl salt 40 mg/kg i.p., Day 1, 7, 14
compound,measurement,setting,value
"CCCNCCOc1cc(F)cc(S(C)(=O)=O)c1.Cl [Example 1 of WO 2012/143337, hydrochloric acid salt of [2-(3-fluoro-5-methanesulfonylphenoxy)-ethyl](propyl)amine]",Weight gained,"[1]; 95% relative humidity and 25° C., DVS",approximately 3%
same,"Hygroscopicity, in words",[1]; high relative humidities,hygroscopic at high relative humidities
"CCCNCCOc1cc(F)cc(S(C)(=O)=O)c1 [Example 2, [2-(3-fluoro-5-methanesulfonylphenoxy)ethyl](propyl)amine]",Adverse involuntary movements (AIMs),[2],dose-dependently reduced
"CCCNCCOc1cc(F)cc(S(C)(=O)=O)c1 [Example 7, L-tartaric Acid Salt of [2-(3-fluoro-5-methanesulfonylphenoxy)ethyl](propyl)amine]",Weight difference (%),[3]; Relative Humidity 0 %,−0.26%
same,Weight difference (%),[3]; Relative Humidity 6 %,0.00%
same,Weight difference (%),[3]; Relative Humidity 11 %,−0.06%
same,Weight difference (%),[3]; Relative Humidity 22 %,0.12%
same,Weight difference (%),[3]; Relative Humidity 33 %,−0.18%
same,Weight difference (%),[3]; Relative Humidity 45 %,−0.13%
same,Weight difference (%),[3]; Relative Humidity 56 %,−0.15%
same,Weight difference (%),[3]; Relative Humidity 73 %,−0.24%
same,Weight difference (%),[3]; Relative Humidity 75 %,−0.07%
same,Weight difference (%),[3]; Relative Humidity 83 %,0.06%
same,Weight difference (%),[3]; Relative Humidity 97 %,−0.08%
same,"Hygroscopicity, in words",[3],very low hygroscopicity
same,"Hygroscopicity, in words",[3]; listed as L-tartaric acid salt,not hygroscopic at any relative humidities
same,Improvement in good ON time (mean values),"[4]; 5 mg or less (2.5 mg in some patients) twice-daily (b.i.d.), 9 patients",2.1 h
same,Improvement in good ON time (mean values),"[4]; 7.5 mg twice-daily (b.i.d.), 8 patients",5.6 h
same,Improvement in good ON time (mean values),"[4]; 10 mg or more (12.5 mg in some patients) twice-daily (b.i.d.), 20 patients",1.4 h
same,"Contralateral rotational behavior Day 7 or Day 14 vs Day 1, co-treated with L-DOPA (sensitization)","[5]; co-administered with L-DOPA 10 mg/kg once daily 2 weeks, Example 7 3 mg/kg s.c., amantadine HCl salt 40 mg/kg i.p.",no significant difference
same,"Contralateral turns, test compound given alone",[5]; [8],no contralateral turns
same,Effect on L-DOPA-induced increase of striatal cfos and arc expression,"[6]; combination with L-DOPA, 14 days, Example 7 3 mg/kg",attenuated
"N[C@@H](Cc1ccc(O)c(O)c1)C(=O)O [L-DOPA, L-3,4-dihydroxyphenylalanine, reference compound]","Contralateral rotational behavior over time, L-DOPA alone","[5]; L-DOPA 10 mg/kg with benzerazid 7.5 mg/kg i.p., once daily 2 weeks, Day 1, 7, 14",increasing contralateral rotational behavior
same,"Striatal expression of IEGs cfos and arc, L-DOPA treatment","[6]; L-DOPA, 14 days of treatment, relative gene expression",significantly increased
"NC12CC3CC(CC(C3)C1)C2 [amantadine HCl salt, amantadine, reference compound]","Contralateral turns, test compound given alone",[5]; [8],no contralateral turns
CCCNCCOc1cc(F)cc(S(C)(=O)=O)c1 [tartaric acid salt of [2-(3-fluoro-5-methanesulfonylphenoxy)-ethyl] (propyl)amine],"Hygroscopicity, in words",[7],non-hygroscopic
